Data from BigSolDB 2.1.

Details: in water

O=C1NC(=O)c2cc([N+](=O)[O-])ccc21
Details	solubility (mole fraction)
278.15 K	0.000105
283.15 K	0.000142
288.15 K	0.000187
293.15 K	0.000248
298.15 K	0.000324
303.15 K	0.000415
308.15 K	0.000537
313.15 K	0.000684
318.15 K	0.00086
323.15 K	0.00109
